Results on 15 molecules are retold here after patent US12428428B2, “Tricyclic tetrahydroisoquinoline derivative, preparation method therefor and application thereof in medicine” (JIANGSU HENGRUI MEDICINE CO., LTD., priority 2020, dated 2025).

One data set addresses ER (estrogen receptor) (Homo sapiens (Human), UniProt P03372). Description: Inhibition of binding of E to ER (MCF-7/ERE-luciferase reporter cells). The format is cell-based. The following applies: MCF-7/ERE-luciferase cells, 0.1 nM estradiol, 24 h. How it is done: The compounds of the present disclosure can inhibit the binding of E (estrogen) to ER (estrogen receptor), thereby blocking the binding of the complex of E and ER to ERE (estrogen response element), and consequently the expression of downstream luciferase proteins. The inhibitory effects of the compounds of the present disclosure on the binding of E to ER was tested by using the following method.
An ERE was cloned upstream of the luciferase gene, and MCF-7/ERE-luciferase monoclonal cells were selected by transfection of MCF-7 (TCHu74, National Collection of Authenticated Cell Cultures). The MCF-7/ERE-luciferase cells were seeded into a 96-well plate with an MEM (hyclone, SH30024.01B) medium containing 10% charcoal stripped FBS (Moregate, FBSF), 1% sodium pyruvate (sigma, S8636), 1% non-essential amino acids (sigma, M7145) and 500 μg/mL G418 at a density of 30,000 cells/well and cultured at 37° C. with 5% CO2. 20 mM stock solutions of the drugs are prepared, serially diluted 10-fold with 100% DMSO, and then diluted 20-fold with the medium. After the cells were cultured for 24 h, the medium was removed. 0.1 nM estradiol (sigma, E2758) and 10 μL of a medium-diluted drug were added to each well, and DMSO was added to the control group. The mixtures were well mixed by gentle shaking. The cells were cultured in an incubator at 37° C. with 5% CO2 for 24 h, and then the cell culture liquid was removed, followed by the addition of 50 μL of a luciferase substrate (Promega, E6110) to each well. The plate was let stand at room temperature in the dark for 10-15 min, and the chemiluminescence signal values were determined.
The inhibitory effects of the compounds of the present disclosure on the binding of E to ER were tested through the above experiment. The chemiluminescence signal value was plotted against the compound concentration (in log form) using Graphpad Prism, and the IC50 values of the compounds were obtained.

The target in another data set is CYP3A4 (Homo sapiens (Human), UniProt P08684). Description: Time-dependent inhibition of site of metabolism of testosterone in human liver microsome CYP3A4. The format is in vitro ADME. The following applies: testosterone substrate; for IC50 shift at 30 min: human, human liver microsomes, probe testosterone (75 µM). How it is done:
• 1. Phosphate buffer (20×PBS, purchased from Sangon); • 2. NADPH (ACROS, A2646-71-1); • 3. Human liver microsome (Corning Gentest, Cat No, 452161, Lot No. 905002, Donor36); • 4. ABI QTrap 4000 LC-MS System (AB Sciex); • 5. ZORBAX Extend-C18, 3×50 mm, 3.5 μm (Agilent, USA); • 6. CYP probe substrate (testosterone, Vocko, CAS No. [58-22-0]/75 μM) and positive control inhibitor (verapamil, Adamas Reagent Co Ltd, Cat No. 25904A).
A 100 mM PBS buffer was prepared. A 0.25 mg/mL microsome solution, a 7.5 mM MgCl2 and a 5 mM NADPH solution were prepared using the buffer. A 30 mM stock solution was diluted with DMSO to obtain 30 mM, 10 mM, 3 mM, 1 mM, 0.3 mM, 0.1 mM, 0.03 mM and 0 mM serial solutions I, which were further diluted 200-fold with phosphate buffer (PBS) to obtain serial test solutions II (150, 50, 15, 5, 1.5, 0.5, 0.15 and 0 μM). A midazolam working solution was diluted with PBS to 15 μM.
The serial test solutions prepared above were well mixed by shaking and aliquoted in 20 μL portions into corresponding reaction plates (+NADPH, T0 and −NADPH groups were set). Three parallel tests were set. 40 μL of the liver microsome working solution was added to each 96-well plate. 20 μL of a corresponding substrate solution was added to the T0 plate. 20 μL of NADPH was added to the TO plate and +NADPH group. A timer was started, and the plates were incubated in a water bath at 37° C. After 30 min of incubation, the TO plate was taken out, and the reaction was terminated with 250 μL of an internal standard-containing ACN solution. The +NADPH group was supplemented with 20 μL of the corresponding substrate solution, and the −NADPH group was supplemented with 20 μL of the corresponding substrate solution and […]. A timer was started, and the plates were incubated in a water bath at 37° C. After 30 min of incubation, the plates were taken out, and the reactions were terminated with 250 μL of an internal standard-containing ACN solution. Then the plates were shaken on a shaker at 800 rpm for 10 min and centrifuged at 4000 rpm for 15 min. 100 μL of the supernatant and 80 μL of ultrapure water were well mixed and subjected to LC-MS/MS analysis.
The IC50 values of the drugs for the site of metabolism of testosterone in CYP3A4 were calculated using Graphpad Prism and are shown in Table 8.
(In general: Liver microsomes are a subcellular fraction often used to study metabolism.)

Where [1] appears, read: 30 min pre-incubation with NADPH.

CYP3A4, sequence (P08684 whole entry): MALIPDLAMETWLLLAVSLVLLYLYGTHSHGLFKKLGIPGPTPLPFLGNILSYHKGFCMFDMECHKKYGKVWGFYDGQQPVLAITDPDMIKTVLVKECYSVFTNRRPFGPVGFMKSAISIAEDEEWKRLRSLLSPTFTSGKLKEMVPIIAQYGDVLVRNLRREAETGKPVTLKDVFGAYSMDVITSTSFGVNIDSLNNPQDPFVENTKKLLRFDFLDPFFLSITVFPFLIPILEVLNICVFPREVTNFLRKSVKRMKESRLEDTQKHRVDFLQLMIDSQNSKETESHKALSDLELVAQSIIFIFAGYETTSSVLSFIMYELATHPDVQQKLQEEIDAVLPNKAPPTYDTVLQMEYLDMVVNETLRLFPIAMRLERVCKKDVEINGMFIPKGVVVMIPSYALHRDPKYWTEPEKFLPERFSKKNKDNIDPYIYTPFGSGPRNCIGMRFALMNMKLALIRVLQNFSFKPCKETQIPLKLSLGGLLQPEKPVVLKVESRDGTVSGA
ER (estrogen receptor), sequence (P03372 whole entry): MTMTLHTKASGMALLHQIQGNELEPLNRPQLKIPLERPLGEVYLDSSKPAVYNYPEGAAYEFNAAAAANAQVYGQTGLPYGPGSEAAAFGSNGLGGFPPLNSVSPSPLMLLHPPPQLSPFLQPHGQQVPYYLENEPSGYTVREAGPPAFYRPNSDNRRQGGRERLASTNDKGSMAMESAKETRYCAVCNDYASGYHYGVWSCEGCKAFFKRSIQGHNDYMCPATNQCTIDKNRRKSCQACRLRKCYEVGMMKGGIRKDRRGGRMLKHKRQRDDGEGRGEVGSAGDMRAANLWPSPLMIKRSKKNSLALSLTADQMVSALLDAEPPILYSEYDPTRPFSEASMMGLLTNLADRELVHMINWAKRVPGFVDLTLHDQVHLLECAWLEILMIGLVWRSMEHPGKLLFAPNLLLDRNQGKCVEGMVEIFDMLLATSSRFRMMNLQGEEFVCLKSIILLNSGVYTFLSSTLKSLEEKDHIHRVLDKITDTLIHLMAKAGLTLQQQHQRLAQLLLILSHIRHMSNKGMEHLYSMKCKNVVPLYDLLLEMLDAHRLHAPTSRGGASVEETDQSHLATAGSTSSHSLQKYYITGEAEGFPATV

What is called IC50 is the point on the concentration scale where inhibition reaches its midpoint. Read a high IC50 as lower potency. Molecule `C[C@@H]1Cc2cc3c(cc2[C@@H](c2ccc(NC4CN(CCCF)C4)cn2)N1CC(F)(F)F)OCO3` [Example 17, N-(1-(3-fluoropropyl)azetidin-3-yl)-6-((5S,7R)-7-methyl-6-(2,2,2-trifluoroethyl)-5,6,7,8-tetrahydro-[1,3]dioxolo[4,5-g]isoquinolin-5-yl)pyridin-3-amine] came in with an IC50 on ER (estrogen receptor) of 0.43 nM.
Same read-out and setting: as for `C[C@@H]1Cc2cc3c(cc2[C@@H](c2c(F)cc(N[C@H]4CCN(CCCF)C4)cc2F)N1CC(F)(F)F)OCO3` [Example 2, (S)—N-(3,5-difluoro-4-((5S,7R)-7-methyl-6-(2,2,2-trifluoroethyl)-5,6,7,8-tetrahydro-[1,3]dioxolo[4,5-g]isoquinolin-5-yl)phenyl)-1-(3-fluoropropyl)pyrrolidin-3-amine], the figure is 0.1 nM.
As for `[2H]C1([2H])Oc2cc3c(cc2O1)[C@@H](c1ccc(NC2CN(CCCF)C2)cn1)N(CC(F)(F)CO)[C@H](C)C3` [Example 13, 2,2-Difluoro-3-((5S,7R)-5-(5-((1-(3-fluoropropyl)azetidin-3-yl)amino)pyridin-2-yl)-7-methyl-7,8-dihydro-[1,3]dioxolo[4,5-g]isoquinolin-6(5H)-yl-2,2-d2)propan-1-ol], the “IC50 Shift” value on CYP3A4 was “No TDI”.
On to `C[C@@H]1Cc2cc3c(cc2[C@@H](c2c(F)cc(O[C@H]4CCN(CCCF)C4)cc2F)N1CC(F)(F)F)OCO3` [Example 15, (5S,7R)-5-(2,6-difluoro-4-(((S)-1-(3-fluoropropyl)pyrrolidin-3-yl)oxy)phenyl)-7-methyl-6-(2,2,2-trifluoroethyl)-5,6,7,8-tetrahydro-[1,3]dioxolo[4,5-g]isoquinoline], for which the IC50 on ER (estrogen receptor) worked out at 0.19 nM.
`[2H]C1([2H])Oc2cc3c(cc2O1)[C@@H](c1ccc(N[C@H]2CCN(CCCF)C2)cn1)N(CC(F)(F)CO)[C@H](C)C3` [Example 12, 2,2-Difluoro-3-((5S,7R)-5-(5-(((S)-1-(3-fluoropropyl)pyrrolidin-3-yl)amino)pyridin-2-yl)-7-methyl-7,8-dihydro-[1,3]dioxolo[4,5-g]isoquinolin-6(5H)-yl-2,2-d2)propan-1-ol]: the figures for the 50% inhibitory concentration (IC50) on ER (estrogen receptor), on CYP3A4 (setting [1]) and on CYP3A4 (pre-incubation without NADPH) were 1.13 nM, 11600 nM and 25200 nM, respectively. At CYP3A4, the IC50 shift at 30 min was 0.5.
On the same counts, the results for `C[C@@H]1Cc2cc3c(cc2[C@@H](c2ccc(N[C@H]4CCN(CCCF)C4)cn2)N1CC(F)(F)CO)OCO3` [Example 4, 2,2-Difluoro-3-((5S,7R)-5-(5-(((S)-1-(3-fluoropropyl)pyrrolidin-3-yl)amino)pyridin-2-yl)-7-methyl-7,8-dihydro-[1,3]dioxolo[4,5-g]isoquinolin-6(5H)-yl)propan-1-ol] are 0.37 nM, 2400 nM, 2500 nM and 1.
On ER (estrogen receptor), `C[C@@H]1Cc2cc3c(cc2[C@@H](c2ccc(N[C@H]4CCN(CCCF)C4)cc2)N1CC(F)(F)F)OCO3` [Example 1, (S)-1-(3-fluoropropyl)-N-(4-((5R,7R)-7-methyl-6-(2,2,2-trifluoroethyl)-5,6,7,8-tetrahydro-[1,3]dioxolo[4,5-g]isoquinolin-5-yl)phenyl)pyrrolidin-3-amine] returned an IC50 of 0.14 nM.
Still for that read-out and setting: for `[2H]C1([2H])Oc2cc3c(cc2O1)[C@@H](c1ccc(N[C@H]2CCN(CCCF)C2)cc1)N(CC(F)(F)CO)[C@H](C)C3` [Example 19, 2,2-Difluoro-3-((5R,7R)-5-(4-(((S)-1-(3-fluoropropyl)pyrrolidin-3-yl)amino)phenyl)-7-methyl-7,8-dihydro-[1,3]dioxolo[4,5-g]isoquinolin-6(5H)-yl-2,2-d2)propan-1-ol] the value was 0.07 nM.
Still for that read-out and setting: as for `C[C@@H]1Cc2cc3c(cc2[C@@H](c2c(F)cc(N[C@H]4CCN(CCCF)C4)cc2F)N1CC(F)(F)CO)OCO3` [Example 5, 3-((5S,7R)-5-(2,6-difluoro-4-(((S)-1-(3-fluoropropyl)pyrrolidin-3-yl)amino)phenyl)-7-methyl-7,8-dihydro-[1,3]dioxolo[4,5-g]isoquinolin-6(5H)-yl)-2,2-difluoro-1-propanol], the figure is 0.05 nM.
Still for that read-out and setting: for `C[C@@H]1Cc2cc3c(cc2[C@@H](c2ncc(N[C@H]4CCN(CCCF)C4)cc2F)N1CC(F)(F)F)OCO3` [Example 9, 5-Fluoro-N—((S)-1-(3-fluoropropyl)pyrrolidin-3-yl)-6-((5S,7R)-7-methyl-6-(2,2,2-trifluoroethyl)-5,6,7,8-tetrahydro-[1,3]dioxolo[4,5-g]isoquinolin-5-yl)pyridin-3-amine] the value was 0.46 nM; for `C[C@@H]1Cc2cc3c(cc2[C@@H](c2ccc(NC4CN(CCCF)C4)cn2)N1CC(F)(F)CO)OCO3` [Example 14, 2,2-Difluoro-3-((5S,7R)-5-(5-((1-(3-fluoropropyl)azetidin-3-yl)amino)pyridin-2-yl)-7-methyl-7,8-dihydro-[1,3]dioxolo[4,5-g]isoquinolin-6(5H)-yl)propan-1-ol], 0.5 nM; for `C[C@@H]1Cc2cc3c(cc2[C@@H](c2ccc(NC4CN(CCCF)C4)cc2)N1CC(F)(F)CO)OCO3` [Example 18, 2,2-Difluoro-3-((5R,7R)-5-(4-((1-(3-fluoropropyl)azetidin-3-yl)amino)phenyl)-7-methyl-7,8-dihydro-[1,3]dioxolo[4,5-g]isoquinolin-6(5H)-yl)propan-1-ol], 0.07 nM.
Regarding `C[C@@H]1Cc2cc3c(cc2[C@@H](c2ccc(N[C@H]4CCN(CCCF)C4)cn2)N1CC(F)(F)F)OCO3` [Example 6, N—((S)-1-(3-fluoropropyl)pyrrolidin-3-yl)-6-((5S,7R)-7-methyl-6-(2,2,2-trifluoroethyl)-5,6,7,8-tetrahydro-[1,3]dioxolo[4,5-g]isoquinolin-5-yl)pyridin-3-amine], on ER (estrogen receptor), the IC50 turned out to be 0.27 nM.
On the same count and under the same terms, for `C[C@@H]1Cc2cc3c(cc2[C@@H](c2ccc(N[C@H]4CCN(CCCF)C4)cc2)N1CC(F)(F)CO)OCO3` [Example 3, 2,2-Difluoro-3-((5R,7R)-5-(4-(((S)-1-(3-fluoropropyl)pyrrolidin-3-yl)amino)phenyl)-7-methyl-7,8-dihydro-[1,3]dioxolo[4,5-g]isoquinolin-6(5H)-yl)propan-1-ol] the value was 0.44 nM; for `C[C@@H]1Cc2cc3c(cc2[C@@H](c2ncc(N[C@H]4CCN(CCCF)C4)cc2F)N1CC(F)(F)CO)OCO3` [Example 11, 2,2-Difluoro-3-((5S,7R)-5-(3-fluoro-5-(((S)-1-(3-fluoropropyl)pyrrolidin-3-yl)amino)pyridin-2-yl)-7-methyl-7,8-dihydro-[1,3]dioxolo[4,5-g]isoquinolin-6(5H)-yl)propan-1-ol], 0.35 nM.
